Measurements as given in patent publication US20130150354A1, “NEW SELECTIVE CCR2 ANTAGONISTS” (BOEHRINGER INGELHEIM INTERNATIONAL GMBH, priority 2011, published 2013).

Key:
[1] = biological target: T1, human CCR5 (Homo sapiens, UniProt P51681); test: CCR5 receptor membrane binding assay (CHO (Gα16) human CCR5 membranes, [125I]RANTES, SPA beads); conditions: 6 h, read-out: hKi [nM] (CCR5)
T1 construct: expressed in transfected cells; host or cells: CHO cells co-expressing Gα16, grown under puromycin and zeocin selection; membrane preparation
Method: The above exemplary substances have been tested for binding to CCR5 using a binding assay as outlined herein below:
CHO, (Gα16) human CCR5 cells were cultured under standardized conditions at 37° C. and 5% CO2 in a humidified incubator. CHO (Gα16) human CCR5 cells were cultivated in Ham's F12 (Invitrogen; #31765068) supplemented with 10 µg/ml Puromycin (Invitrogen; #A11139-03), 200 µg/ml Zeocin (Invitrogen; #45-0003) and 10% FCS (Gibco; #10500-064).
Membranes were prepared from CHO (Gα16) human CCR5 cells. Cells were cultured on […] plates (Nunc; #166508) 2-3 days before membrane preparation (usually 80-100 plates to obtain 80 mg protein).
Cells were scraped off the plates with a big scraper and washed with 2×5 ml ice cold Phosphate Buffer Saline (PBS; Invitrogen; #14040-174). Cell suspension was collected in a glass bottle (on ice). Cell suspension was harvested at 1400 rpm and 4° C. for 10 min and washed in PBS. Cell pellet was resuspended in 40 ml PBS with protease inhibitor mix ‘complete’ (Roche; #11873580001; 1 tablet/50 ml).
For gentle cell disruption the membrane preparation was performed by using a homogenizer (potter). Cells were homogenized for 5-10 min.
Membranes were centrifuged at 1000 rpm and 4° C. for 5 min. Supernatant (=membrane) was harvested in a new falcon tube and remaining cell pellet homogenized again for 5-10 min with PBS with protease inhibitor mix and centrifuged. Collected supernatant was centrifuged at 40000 rpm and 4° C. for 30 min to sediment the cell membranes.
The membranes were resuspended in 25 mM HEPES, 25 mM MgCl2, 1 mM CaCl2, 10% Glycerine for storage in aliquots at −80° C. Membranes were diluted to a concentration of 5 mg/ml (Bradford Assay).
[^125I]RANTES, Stock: 1825 Ci/mmol, 25 μCi (Bio Trend #A3-AI-676) was solved in 1000 μl assay buffer (100 mM NaCl; 10 mM MgCl2; 50 mM Tris-HCl; 1 mM EDTA; 0.1% BSA, pH 7.6), stored at −20° C.
CHO (Gα16) human CCR5 membrane were solved on ice and adjusted with assay buffer to a concentration of 2.5 μg/15 μl.
Amersham Biosciences PVT-WGA Beads (GE Healthcare; #RPNQ0001) were adjusted with assay buffer to a concentration of 8 mg/ml. For preparation of the membrane-bead-suspension, membranes and beads were incubated for 30 min at RT under rotation with a ratio of 1:2.
Test compounds dissolved in 100% DMSO to a concentration of 10 mM and are further diluted with 100% DMSO to 1 mM. All additional compound dilutions were obtained with assay buffer, final 1% DMSO. 7 μl compound dilution, 45 μl membrane-bead-suspension and 10 μl [^125I]RANTES (ca. 20000 cpm/10 μl) were incubated at RT. Bound radioactivity was determined by scintillation counter after 6 h. Determination of affinity of test compounds (dissociation constant Ki) is calculated by iterative fitting of experimental data using the “easy sys” program, which is based on law of mass action (Schittkowski K. (1994), Numerische Mathematik, Vol. 68, 129-142).

[2] = biological target: T2, CCR2 (Homo sapiens, UniProt P41597); test: CCR2 receptor membrane binding assay (THP-1 membranes, 125I-MCP-1, SPA beads); conditions: THP-1 cell membranes, 125I-MCP-1, 8 h; read-out: hKi [nM] (CCR2)
T2 construct: Membranes were prepared from THP-1 cells; endogenous in cells; host or cells: THP-1 (human acute monocytic leukaemia cells), membrane preparation
T2 sequence (P41597 1-360 isoform P41597-2): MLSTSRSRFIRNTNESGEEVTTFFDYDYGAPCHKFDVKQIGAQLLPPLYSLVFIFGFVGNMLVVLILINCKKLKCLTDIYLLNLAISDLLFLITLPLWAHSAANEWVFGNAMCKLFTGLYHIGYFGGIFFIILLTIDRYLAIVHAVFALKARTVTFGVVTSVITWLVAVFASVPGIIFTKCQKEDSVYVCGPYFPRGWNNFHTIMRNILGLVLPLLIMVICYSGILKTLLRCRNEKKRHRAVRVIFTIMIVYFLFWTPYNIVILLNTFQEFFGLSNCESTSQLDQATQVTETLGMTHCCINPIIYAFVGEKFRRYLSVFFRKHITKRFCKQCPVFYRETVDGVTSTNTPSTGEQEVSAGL
Method: The above exemplary substances have been tested for binding to CCR2 using a binding assay as outlined herein below:
THP-1 cells (human acute monocytic leukaemia cells) were cultured under standardized conditions at 37° C. and 5% CO2 in a humidified incubator. THP-1 cells were cultivated in RPMI 1640 medium (Gibco 21875) containing 1% MEM-NEAA (Gibso 11140) 2 mM L-glutamine, 1.5 g/L sodium bicarbonate, 4.5 g/L glucose, 10 mM HEPES and 1.0 mM sodium pyruvate, 90%; 10% fetal calf serum (FCS Gibco 10500-064).
Membranes were prepared from THP-1 cells. THP-1 cells were centrifuged at 300×g at 4° C. for 10 min. The cell pellet was resuspendet in Phosphate Buffer Saline (PBS, including 10 μM Pefabloc and a protease inhibitor mix ‘complete’, Boehringer Mannheim (1 tablet/50 ml)), to a concentration of […]. The membrane preparation was performed by disrupting the cells by nitrogen […] (at 50 bar, for 1 h) in a “Nitrogen Bombe” (Parr Instrument). Cell debris was removed by centrifugation (800×g at 4° C., 1 min). The supernatant was centrifuged at 80000×g, 4° C. for 30 min to sediment the cell membranes. Usually 50 mg of protein (Bradford assay) were yielded from 1×10E9 cells. The membranes were resuspendet in 25 mM HEPES, 25 mM MgCl2, 1 mM CaCl2, 10% Glycerine for storage in aliquots at −80° C. in 25 mM HEPES, 25 mM MgCl2, 1 mM CaCl2, 10% Glycerine and stored at −80° C.
Perkin Elmer NEX 332 Jod^125 MCP-1, Stock: 2200 Ci/mmol solved in 2000 μl assay buffer, stored at −20° C. THP-1 membrane were adjusted with 25 mM HEPES, pH 7.2; 5 mM MgCl2; 0.5 mM CaCl2; 0.2% BSA assay buffer to a concentration of 2.5 μg/15 μl. Amersham Biosciences PVT-WGA Beads (RPNQ0001) were adjusted with assay buffer to a concentration of 0.24 mg/30 μl. For preparation of the membrane-bead-suspension membranes and beads were incubated for 30 min at RT under rotation (60 rpm) with a ratio of 1:2. Test compounds dissolved in 100% DMSO to a concentration of 10 mM and are further diluted with 100% DMSO to 1 mM. All additional compound dilutions were obtained with assay buffer, final 1% DMSO. Compounds, membrane-bead-suspension and [^125]MCP-1 (ca. 25000 cpm/10 μl) were incubated. Bound radioactivity was determined by scintillation counter after 8 h. Determination of affinity of test compounds (dissociation constant hKi) is calculated by iterative fitting of experimental data using the “easy sys” program, which is based on law of mass action (Schittkowski K. (1994), Numerische Mathematik, Vol. 68, 129-142).

T1 sequence (P51681 whole entry): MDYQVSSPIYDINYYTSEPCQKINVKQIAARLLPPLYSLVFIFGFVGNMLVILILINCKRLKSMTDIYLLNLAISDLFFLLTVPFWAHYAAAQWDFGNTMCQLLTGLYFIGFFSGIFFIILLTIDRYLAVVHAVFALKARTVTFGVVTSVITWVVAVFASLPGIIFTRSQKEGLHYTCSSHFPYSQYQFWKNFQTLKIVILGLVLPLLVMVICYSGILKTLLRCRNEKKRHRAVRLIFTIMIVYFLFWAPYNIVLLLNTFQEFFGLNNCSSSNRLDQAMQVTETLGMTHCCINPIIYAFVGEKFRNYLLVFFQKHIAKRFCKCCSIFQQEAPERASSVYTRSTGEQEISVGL

Row | SMILES | Ki [1] [nM] | Ki [2] [nM]
1 | Cc1c(Nc2ccc(Cl)c(Cl)c2)ncnc1C(=O)N1CCC(N2C[C@H]3C[C@@H](N(C)S(C)(=O)=O)C[C@H]3C2)CC1 [Example 10] | 92 | 0.6
2 | Cc1c(C(=O)N2CCC(N3C[C@H]4C[C@@H](N(C)S(C)(=O)=O)C[C@H]4C3)CC2)ncnc1N1CCc2ccc(C(F)(F)F)cc2C1 [Example 7] | 420 | 0.6
3 | Cc1c(Nc2cccc(C(F)(F)F)c2)ncnc1C(=O)N1CCC(N2CCO[C@H]3COCC[C@H]32)CC1 [Example 5] | 1460 | 9
4 | COc1nc(Nc2ccc(Cl)c(Cl)c2)c(C)c(C(=O)N2CCC(N3CCO[C@@H]4COCC[C@@H]43)CC2)n1 (single isomer, unassigned) [Example 37b] | 1000 | 6
5 | Cc1c(NC[C@H]2CCC[C@@H](c3ccc(OC(F)(F)F)cc3)O2)ncnc1C(=O)N1CCC(N2CCO[C@H]3COCC[C@H]32)CC1 (single isomer, unassigned) [Example 33] | 48 | 1
6 | Cc1c(C(=O)N2CCC(N3CCO[C@@H]4COCC[C@@H]43)CC2)ncnc1N1COc2ccc(C(F)(F)F)cc2C1 (single isomer, unassigned) [Example 41] | 460 | 2
7 | Cc1c(NC[C@H]2CCC[C@@H](c3ccc(C(F)(F)F)cc3)O2)ncnc1C(=O)N1CCC(N2C[C@H]3C[C@@H](N(C)S(C)(=O)=O)C[C@H]3C2)CC1 [Example 9] | 21 | 0.2
8 | Cc1c(NC[C@H]2CCC[C@@H](c3ccc(C(F)(F)F)cc3)O2)ncnc1C(=O)N1CCC(N2CCO[C@@H]3COCC[C@@H]32)CC1 [Example 1] | 1770 | 15
9 | Cc1c(Nc2ccc(Cl)c(Cl)c2)ncnc1C(=O)N1CCC(N2CC3CN(S(C)(=O)=O)CC3C2)CC1 (stereo not drawn) [Example 15] | 400 | 3
10 | Cc1c(NCc2ccc(C(C)(C)C)cc2)nc(C(F)(F)F)nc1C(=O)N1CCC(N2CC3COCC3C2)CC1 (stereo not drawn) [Example 20] | 2610 | 69
11 | Cc1c(Nc2cccc(C(F)(F)F)c2)nc(C2CC2)nc1C(=O)N1CCC(N2CCO[C@H]3COCC[C@H]32)CC1 (single isomer, unassigned) [Example 39a] | 460 | 1
12 | COc1nc(NCc2ccc(C(C)(C)C)cc2)c(C)c(C(=O)N2CCC(N3CC4COCC4C3)CC2)n1 (stereo not drawn) [Example 19] | 4030 | 58
13 | Cc1c(C(=O)N2CCC(N3CCO[C@H]4COCC[C@H]43)CC2)ncnc1N1CCc2ccc(C(F)(F)F)cc2C1 [Example 3] | 2090 | 4
14 | Cc1c(NC[C@H]2CCC[C@@H](c3ccc(C(F)(F)F)cc3)O2)ncnc1C(=O)N1CCC(N2CC3COCC3C2)CC1 (stereo partly drawn) [Example 17] | 320 | 16
15 | Cc1c(NC[C@H]2CCC[C@@H](c3ccc(C(F)(F)F)cc3)O2)ncnc1C(=O)N1CCC(N2CC3CN(S(C)(=O)=O)CC3C2)CC1 (stereo partly drawn) [Example 12] | 220 | 1
16 | Cc1c(NCc2ccc(C(C)(C)C)cc2)ncnc1C(=O)N1CCC(N2CC3CN(S(C)(=O)=O)CC3C2)CC1 (stereo not drawn) [Example 42] | 1820 | 11
17 | Cc1ccc([C@@H]2CCC[C@H](CNc3ncnc(C(=O)N4CCC(N5CC6CN(S(C)(=O)=O)CC6C5)CC4)c3C)O2)cc1 (stereo partly drawn) [Example 14] | 330 | 3
18 | Cc1c(Nc2cccc(C(F)(F)F)c2)nc(C2CC2)nc1C(=O)N1CCC(N2CCO[C@H]3COCC[C@H]32)CC1 [Example 29] | 960 | 1
19 | Cc1ccc([C@@H]2CCC[C@H](CNc3ncnc(C(=O)N4CCC(N5C[C@H]6C[C@@H](N(C)S(C)(=O)=O)C[C@H]6C5)CC4)c3C)O2)cc1 [Example 6] | 38 | 0.3
20 | Cc1c(Nc2ccc(Cl)c(Cl)c2)ncnc1C(=O)N1CCC(N2CCO[C@H]3COCC[C@H]32)CC1 [Example 4] | 540 | 4
21 | Cc1c(NC[C@H]2CCC[C@@H](c3ccc(OC(F)(F)F)cc3)O2)ncnc1C(=O)N1CCC(N2C[C@H]3C[C@@H](N(C)S(C)(=O)=O)C[C@H]3C2)CC1 [Example 8] | 9 | 0.1
22 | Cc1c(Nc2cccc(C(F)(F)F)c2)nc(C2CC2)nc1C(=O)N1CCC(N2CCO[C@@H]3COCC[C@@H]32)CC1 (single isomer, unassigned) [Example 39b] | – | 31
23 | COc1nc(Nc2cccc(C(F)(F)F)c2)c(C)c(C(=O)N2CCC(N3CCO[C@@H]4COCC[C@@H]43)CC2)n1 (single isomer, unassigned) [Example 36b] | 2100 | 42
24 | Cc1nc(Nc2cccc(C(F)(F)F)c2)c(C)c(C(=O)N2CCC(N3CCO[C@H]4COCC[C@H]43)CC2)n1 [Example 30] | 1000 | 9
25 | Cc1ccc([C@@H]2CCC[C@H](CNc3ncnc(C(=O)N4CCC(N5CC6COCC6C5)CC4)c3C)O2)cc1 (stereo partly drawn) [Example 16] | 880 | 40
26 | Cc1c(C(=O)N2CCC(N3CCOC4COCCC43)CC2)ncnc1N1CCc2ccc(C(F)(F)F)cc2C1 (stereo not drawn) [Example 23] | 5820 | 17
